From US9593149B2, “Amylin and calcitonin receptor agonist” (Novo Nordisk A/S, priority 2014, dated 2017) come the findings set out here.

Numbered stars: 1 amine (or outer) side, 2 acyl side, 3 side chain; on linkers, the order of the positions; unused ones are H or OH. Side chains are listed from the residue outwards. Peptide text beside a SMILES is read from it. * marks the point of attachment. C20 diacid = O=C(O)CCCCCCCCCCCCCCCCCCC(=O)*; C18 diacid = O=C(O)CCCCCCCCCCCCCCCCC(=O)*; C16 diacid = O=C(O)CCCCCCCCCCCCCCC(=O)*; γGlu = O=C(O)[C@H](CCC(=O)[*:2])N[*:1]; C14 diacid = O=C(O)CCCCCCCCCCCCC(=O)*

Data set [1] is described as follows: Assay (IV) determination of solubility. It is filed as physicochemical. On the procedure: Assay (IV)—Determination of Solubility
The mimylin peptide was dissolved in water at ˜500 nmol/ml and mixed 1:1 with a series of buffers (100 mM glycylglycine pH 3.0, 100 mM glycylglycine pH 4.0, 100 mM glycylglycine pH 5.0, 100 mM bistrispropane pH 6.0, 100 mM bistrispropane pH 6.5, 100 mM bistrispropane pH 7.0, 100 mM bistrispropane pH 7.5, 100 mM bistrispropane pH 8.0).

The next data set deals with T1, rat calcitonin receptor (Rattus norvegicus, UniProt P32214).
T1 construct: expressed in transfected cells; host or cells: BHK tk'ts 13 (transient, FuGENE 6)
T1 sequence (P32214 25-479 isoform P32214-2 limits assumed): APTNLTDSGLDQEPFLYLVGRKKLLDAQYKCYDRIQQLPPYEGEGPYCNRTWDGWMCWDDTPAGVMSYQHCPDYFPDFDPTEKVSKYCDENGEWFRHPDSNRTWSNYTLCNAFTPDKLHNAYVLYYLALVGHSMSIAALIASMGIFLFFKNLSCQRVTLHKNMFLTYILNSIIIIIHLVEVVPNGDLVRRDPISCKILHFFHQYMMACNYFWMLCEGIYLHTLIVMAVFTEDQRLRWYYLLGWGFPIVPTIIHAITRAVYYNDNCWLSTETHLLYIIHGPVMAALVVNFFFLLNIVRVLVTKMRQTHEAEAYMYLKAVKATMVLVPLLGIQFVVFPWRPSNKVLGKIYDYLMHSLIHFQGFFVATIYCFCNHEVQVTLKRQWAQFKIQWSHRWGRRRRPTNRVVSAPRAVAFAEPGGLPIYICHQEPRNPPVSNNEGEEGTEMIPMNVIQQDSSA
The data set is described as follows: Assay (VIII) binding to the rat calcitonin receptor. The following applies: membranes; read-out: rCT-R binding IC50. On the procedure: The morning after, the plates were washed three times in HBSS (4° C.), and lyzed in Lysis buffer (0.1 M NaOH), 1% SDS. Scintillation cocktail (MicroScint40®) was added and the plates were shaken at 500 rpm for a short period. The plate was incubated at room temperature in the dark for 1 hour and Read on a TopCounter™ (Packard). The IC50 was calculated using (one site binding competition analysis) GraphPad Prism5 as a measure of receptor affinity. Assay (VIII)—Determination of Binding to the Rat Calcitonin Receptor
The assay was performed as described above (Assay (VII)—Determination of binding to the human calcitonin receptor) with the exception that we used membranes prepared from BHK tk'ts 13 cells that were transiently transfected with the rat calcitonin receptor. The BHK tk'ts 13 cells were transiently transfected with rat calcitonin receptor using FuGENE® 6 (Roche), according to the manufacturer's recommendations. Cells were grown in DMEM with 10% FBS and 1% Pen/Strep.

A word on the IC50: it is the concentration that inhibits the measured activity by half. Turning to `CC(C)C[C@H](NC(=O)[C@H](C)NC(=O)[C@H](C)NC(=O)[C@@H](NC(=O)[C@H](CO)NC(=O)[C@H](CC(C)C)NC(=O)[C@H](CCC(=O)O)NC(=O)[C@H](CO)NC(=O)[C@H](C)NC(=O)CCCCCCCCCCCCCCCCC(=O)O)[C@@H](C)O)C(=O)NCC(=O)N[C@@H](CCCNC(=N)N)C(=O)N[C@@H](CC(C)C)C(=O)N[C@@H](CO)C(=O)N[C@@H](C)C(=O)N[C@@H](CCC(=O)O)C(=O)N[C@@H](CC(C)C)C(=O)N[C@@H](Cc1cnc[nH]1)C(=O)N[C@@H](CCC(=O)O)C(=O)N[C@@H](CC(C)C)C(=O)N[C@@H](C)C(=O)N[C@H](C(=O)N[C@@H](CC(C)C)C(=O)N1CCC[C@H]1C(=O)N[C@@H](CCCNC(=N)N)C(=O)N[C@H](C(=O)N[C@@H](CCC(=O)O)C(=O)N[C@H](C(=O)NCC(=O)N[C@@H](CO)C(=O)NCC(=O)N[C@@H](CO)C(=O)N1CCC[C@H]1C(N)=O)[C@@H](C)O)[C@@H](C)O)[C@@H](C)O` [compound 48, [N-terminal(C18 diacid), des1, 30S, 31G]mimylin] ({C18 diacid}-ASELSTAALGRLSAELHELATLPRTETGSGSP-NH2), the Solubility entry in data set [1] (pH 3.0), in data set [1] (pH 4.0), in data set [1] (pH 5.0), in data set [1] (pH 6.0), in data set [1] (pH 6.5) and in data set [1] (pH 7.0) was “≧200 μM” throughout. Further, the Solubility entry in data set [1] (pH 7.5) and in data set [1] (pH 8.0) was “≧200 μM” in each case. Further, on rat calcitonin receptor, the IC50 is 0.013 nM.

`CC(C)C[C@H](NC(=O)[C@H](C)NC(=O)[C@H](C)NC(=O)[C@@H](NC(=O)[C@H](CO)NC(=O)[C@H](CC(C)C)NC(=O)[C@H](CCC(=O)O)NC(=O)[C@H](CO)NC(=O)[C@H](C)NC(=O)CCCCCCCCCCCCCCC(=O)O)[C@@H](C)O)C(=O)NCC(=O)N[C@@H](CCCNC(=N)N)C(=O)N[C@@H](CC(C)C)C(=O)N[C@@H](CO)C(=O)N[C@@H](C)C(=O)N[C@@H](CCC(=O)O)C(=O)N[C@@H](CC(C)C)C(=O)N[C@@H](Cc1cnc[nH]1)C(=O)N[C@@H](CCC(=O)O)C(=O)N[C@@H](CC(C)C)C(=O)N[C@@H](C)C(=O)N[C@H](C(=O)N[C@@H](CC(C)C)C(=O)N1CCC[C@H]1C(=O)N[C@@H](CCCNC(=N)N)C(=O)N[C@H](C(=O)N[C@@H](CCC(=O)O)C(=O)N[C@H](C(=O)NCC(=O)N[C@@H](CO)C(=O)NCC(=O)N[C@@H](CO)C(=O)N1CCC[C@H]1C(N)=O)[C@@H](C)O)[C@@H](C)O)[C@@H](C)O` [compound 49, [N-terminal(C16 diacid), des1, 30S, 31G]mimylin] ({C16 diacid}-ASELSTAALGRLSAELHELATLPRTETGSGSP-NH2): the Solubility result in data set [1] (pH 3.0), in data set [1] (pH 4.0), in data set [1] (pH 5.0), in data set [1] (pH 6.0), in data set [1] (pH 6.5) and in data set [1] (pH 7.0) was “≧200 μM” each time. Besides, the Solubility result in data set [1] (pH 7.5) and in data set [1] (pH 8.0) was “≧200 μM” throughout. For the same molecule, the IC50 at rat calcitonin receptor amounted to 0.011 nM.

As to `CC(C)C[C@H](NC(=O)[C@H](C)NC(=O)[C@H](C)NC(=O)[C@@H](NC(=O)[C@H](CO)NC(=O)[C@H](CC(C)C)NC(=O)[C@H](CCC(=O)O)NC(=O)[C@H](CO)NC(=O)[C@H](C)NC(=O)CC[C@H](NC(=O)CCCCCCCCCCCCC(=O)O)C(=O)O)[C@@H](C)O)C(=O)NCC(=O)N[C@@H](CCCNC(=N)N)C(=O)N[C@@H](CC(C)C)C(=O)N[C@@H](CO)C(=O)N[C@@H](C)C(=O)N[C@@H](CCC(=O)O)C(=O)N[C@@H](CC(C)C)C(=O)N[C@@H](Cc1cnc[nH]1)C(=O)N[C@@H](CCC(=O)O)C(=O)N[C@@H](CC(C)C)C(=O)N[C@@H](C)C(=O)N[C@H](C(=O)N[C@@H](CC(C)C)C(=O)N1CCC[C@H]1C(=O)N[C@@H](CCCNC(=N)N)C(=O)N[C@H](C(=O)N[C@@H](CCC(=O)O)C(=O)N[C@H](C(=O)NCC(=O)N[C@@H](CO)C(=O)NCC(=O)N[C@@H](CO)C(=O)N1CCC[C@H]1C(N)=O)[C@@H](C)O)[C@@H](C)O)[C@@H](C)O` [compound 50, [N-terminal(C14 diacid-gGlu), des1, 30S, 31G]mimylin] ({C14 diacid-γGlu}-ASELSTAALGRLSAELHELATLPRTETGSGSP-NH2), the Solubility result in data set [1] (pH 3.0), in data set [1] (pH 4.0), in data set [1] (pH 5.0), in data set [1] (pH 6.0), in data set [1] (pH 6.5) and in data set [1] (pH 7.0) was “≧200 μM” each time. For the same molecule, the Solubility result in data set [1] (pH 7.5) and in data set [1] (pH 8.0) was “≧200 μM” in each case. Moreover, the IC50 on rat calcitonin receptor came to 0.017 nM.

Regarding `CC(C)C[C@H](NC(=O)[C@H](C)NC(=O)[C@H](C)NC(=O)[C@@H](NC(=O)[C@H](CO)NC(=O)[C@H](CC(C)C)NC(=O)[C@H](CCC(=O)O)NC(=O)[C@H](CO)NC(=O)[C@H](C)NC(=O)CCCCCCCCCCCCC(=O)O)[C@@H](C)O)C(=O)NCC(=O)N[C@@H](CCCNC(=N)N)C(=O)N[C@@H](CC(C)C)C(=O)N[C@@H](CO)C(=O)N[C@@H](C)C(=O)N[C@@H](CCC(=O)O)C(=O)N[C@@H](CC(C)C)C(=O)N[C@@H](Cc1cnc[nH]1)C(=O)N[C@@H](CCC(=O)O)C(=O)N[C@@H](CC(C)C)C(=O)N[C@@H](C)C(=O)N[C@H](C(=O)N[C@@H](CC(C)C)C(=O)N1CCC[C@H]1C(=O)N[C@@H](CCCNC(=N)N)C(=O)N[C@H](C(=O)N[C@@H](CCC(=O)O)C(=O)N[C@H](C(=O)NCC(=O)N[C@@H](CO)C(=O)NCC(=O)N[C@@H](CO)C(=O)N1CCC[C@H]1C(N)=O)[C@@H](C)O)[C@@H](C)O)[C@@H](C)O` [compound 51, [N-terminal(C14 diacid), des1, 30S, 31G]mimylin] ({C14 diacid}-ASELSTAALGRLSAELHELATLPRTETGSGSP-NH2), the Solubility result in data set [1] (pH 3.0), in data set [1] (pH 4.0), in data set [1] (pH 5.0), in data set [1] (pH 6.0), in data set [1] (pH 6.5) and in data set [1] (pH 7.0) was “≧200 μM” throughout. In addition, the Solubility entry in data set [1] (pH 7.5) and in data set [1] (pH 8.0) was “≧200 μM” in each case. The IC50 at rat calcitonin receptor was determined as 0.123 nM.

With `CC(C)C[C@H](NC(=O)[C@H](C)NC(=O)[C@H](C)NC(=O)[C@@H](NC(=O)[C@H](CO)NC(=O)[C@H](CC(C)C)NC(=O)[C@H](CCC(=O)O)NC(=O)[C@H](CO)NC(=O)[C@H](C)N)[C@@H](C)O)C(=O)NCC(=O)N[C@@H](CCCNC(=N)N)C(=O)N[C@@H](CC(C)C)C(=O)N[C@@H](CO)C(=O)N[C@@H](C)C(=O)N[C@@H](CCCCNC(=O)CC[C@H](NC(=O)CCCCCCCCCCCCCCCCCCC(=O)O)C(=O)O)C(=O)N[C@@H](CC(C)C)C(=O)N[C@@H](Cc1cnc[nH]1)C(=O)N[C@@H](CCC(=O)O)C(=O)N[C@@H](CC(C)C)C(=O)N[C@@H](C)C(=O)N[C@H](C(=O)N[C@@H](CC(C)C)C(=O)N1CCC[C@H]1C(=O)N[C@@H](CCCNC(=N)N)C(=O)N[C@H](C(=O)N[C@@H](CCC(=O)O)C(=O)N[C@H](C(=O)NCC(=O)N[C@@H](CO)C(=O)NCC(=O)N[C@@H](CO)C(=O)N1CCC[C@H]1C(N)=O)[C@@H](C)O)[C@@H](C)O)[C@@H](C)O` [compound 53, [des1, 16K(C20 diacid-gGlu), 30S, 31G]mimylin] (H-ASELSTAALGRLSAK([γGlu-C20 diacid])LHELATLPRTETGSGSP-NH2), the Solubility result in data set [1] (pH 3.0), in data set [1] (pH 4.0), in data set [1] (pH 5.0), in data set [1] (pH 6.0), in data set [1] (pH 6.5) and in data set [1] (pH 7.0) was “≧200 μM” throughout. The Solubility entry in data set [1] (pH 7.5) and in data set [1] (pH 8.0) was “≧200 μM” each time. Also, the IC50 on rat calcitonin receptor worked out at 0.065 nM.
